According to article PMC7753147, “High-throughput determination of protein affinities using unmodified peptide libraries in nanomolar scale” (iScience, 2020):

What was measured:
native geph = assay: µSPOT peptide microarray binding assay with native geph from mouse brain lysate; details: normalized to most prominent spot, n = 2 array-internal duplicate
gephE = assay: µSPOT peptide microarray binding assay with recombinant gephE; details: normalized to most prominent spot, n = 2 array-internal duplicate
[1] = overlapping GlyR β peptide library on µSPOT array, 3% mouse brain lysate
[2] = overlapping GlyR β peptide library on µSPOT array, 50 nM gephE, anti-gephyrin 3B11/HRP chemiluminescence
[3] = overlapping GABAAR α3 peptide library on µSPOT array, 6% mouse brain lysate
[4] = overlapping GABAAR α3 peptide library on µSPOT array, 20 nM gephE

Sequence	Native geph Binding Intensity [norm.] (native geph; [1])	gephE Binding Intensity [norm.] (gephE; [2])	Native geph Binding Intensity [norm.] (native geph; [3])	gephE Binding Intensity [norm.] (gephE; [4])
IAKAEQADGKGGNAAKKNTV [Glycine receptor subunit beta_007]	0.066	0.025		
NIVGTTYPINLAKDTEFSTI [GABAAR α3 residues 396-415, µSpot library]			0.114	0.044
SNYDCYGKPIEVNNGLGKPQ [Glycine receptor subunit beta_029, GlyR β residues 433-452]	0.204	0.216		
PEALEMKKKTPAAPTKKNTT [GABAAR α3 residues 375-394, µSpot library]			0.071	0.038
YVQDSPAETKTYNSVSKVDK [GABAAR α3 residues 438-457, µSpot library]			0.058	0.073
FELSNYDCYGKPIEVNNGLG [Glycine receptor subunit beta_028, GlyR β residues 430-449]	0.180	0.112		
NNGLGKPQAKNKKPPPAKPV [Glycine receptor subunit beta_033, GlyR β residues 445-464]	0.041	0.055		
VVQVMLNNPKRVEAEKARIA [Glycine receptor subunit beta_001, GlyR β residues 349-368]	0.081	0.017		
GTTYPINLAKDTEFSTISKS [GABAAR α3 residues 399-418, µSpot library]			0.098	0.030
VMLNNPKRVEAEKARIAKAE [Glycine receptor subunit beta_002, GlyR β residues 352-371]	0.082	0.010		
KPPPAKPVIPTAAKRIDL [Glycine receptor subunit beta_037, GlyR β residues 457-474]	0.075	0.037		
NAAKKNTVNGTGTPVHISTL [Glycine receptor subunit beta_011, GlyR β residues 379-398]	0.077	0.011		
NLAKDTEFSTISKSAAAPSA [GABAAR α3 residues 405-424, µSpot library]			0.122	0.029
CTSKSDLRSNDFSIVGSLPR [Glycine receptor subunit beta_021, GlyR β residues 409-428]	0.379	0.645		
LRSNDFSIVGSLPRDFELSN [Glycine receptor subunit beta_023, GlyR β residues 415-434]	1.000	1.000		
TISKSAAAPSASSTPTAIAS [GABAAR α3 residues 414-433, µSpot library]			0.116	0.024

Sequence	Native geph Binding Intensity [norm.] (native geph; [1])	gephE Binding Intensity [norm.] (gephE; [2])	Native geph Binding Intensity [norm.] (native geph; [3])	gephE Binding Intensity [norm.] (gephE; [4])
TPVHISTLQVGETRCKKVCT [Glycine receptor subunit beta_015, GlyR β residues 391-410]	0.060	0.013		
AAPSASSTPTAIASPKATYV [GABAAR α3 residues 420-439, µSpot library]			0.080	0.038
NDFSIVGSLPRDFELSNYDC [Glycine receptor subunit beta_024, GlyR β residues 418-437]	0.561	0.599		
SIVGSLPRDFELSNYDCYGK [Glycine receptor subunit beta_025, GlyR β residues 421-440]	0.301	0.291		
NNPKRVEAEKARIAKAEQAD [Glycine receptor subunit beta_003, GlyR β residues 355-374]	0.109	0.023		
KGGNAAKKNTVNGTGTPVHI [Glycine receptor subunit beta_010]	0.077	0.024		
KSDLRSNDFSIVGSLPRDFE [Glycine receptor subunit beta_022, GlyR β residues 412-431]	0.945	0.972		
SWAWEGKKVPEALEMKKKTP			0.118	0.064
KKNTTFNIVGTTYPINLAKD [GABAAR α3 residues 390-409, µSpot library]			0.243	0.443
TPAAPTKKNTTFNIVGTTYP [GABAAR α3 residues 384-403, µSpot library]			1.000	0.948
GKPIEVNNGLGKPQAKNKKP [Glycine receptor subunit beta_031, GlyR β residues 439-458]	0.069	0.036		
EFSTISKSAAAPSASSTPTA [GABAAR α3 residues 411-430, µSpot library]			0.127	0.028
KDTEFSTISKSAAAPSASST [GABAAR α3 residues 408-427, µSpot library]			0.136	0.020
KKVPEALEMKKKTPAAPTKK [GABAAR α3 residues 372-391, µSpot library]			0.081	0.038
DCYGKPIEVNNGLGKPQAKN [Glycine receptor subunit beta_030, GlyR β residues 436-455]	0.093	0.049		
